Measurements from ChEMBL document CHEMBL1933021, “Novel and selective spiroindoline-based inhibitors of Sky kinase” (Bioorg Med Chem Lett, 2012).

Legend:
[1] = Clearance in po dosed Sprague-Dawley rat; assay type: ADME, organism-based; settings: in vivo
[2] = Oral bioavailability in Sprague-Dawley rat; assay type: ADME, organism-based; settings: in vivo
[3] = system: Rattus norvegicus; test: Volume of distribution at steady state in po dosed Sprague-Dawley rat; assay type: ADME, organism-based; settings: in vivo
[4] = Permeability across human Caco2 cells; assay type: ADME, cell-based; settings: Caco-2, read-out: permeability
[5] = target: CYP2D6 (Homo sapiens, UniProt P10635); test: Inhibition of CYP2D6 using dextromethorphan as substrate at 3 uM; assay type: ADME; settings: probe dextromethorphan
CYP2D6, sequence (P10635 whole entry): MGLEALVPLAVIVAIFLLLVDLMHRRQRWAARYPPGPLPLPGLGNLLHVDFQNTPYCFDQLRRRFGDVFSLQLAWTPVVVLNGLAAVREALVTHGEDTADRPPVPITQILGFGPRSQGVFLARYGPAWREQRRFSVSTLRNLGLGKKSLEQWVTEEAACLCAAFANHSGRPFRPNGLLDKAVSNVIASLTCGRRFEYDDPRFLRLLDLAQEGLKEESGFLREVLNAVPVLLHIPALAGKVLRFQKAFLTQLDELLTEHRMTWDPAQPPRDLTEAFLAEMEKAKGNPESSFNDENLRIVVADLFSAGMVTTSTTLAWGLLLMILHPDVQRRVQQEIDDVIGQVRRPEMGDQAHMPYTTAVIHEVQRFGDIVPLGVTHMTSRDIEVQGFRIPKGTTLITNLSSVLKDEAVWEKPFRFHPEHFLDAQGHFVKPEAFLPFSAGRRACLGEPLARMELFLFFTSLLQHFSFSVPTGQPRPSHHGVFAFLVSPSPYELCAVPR

Row | CL/F [1] [mL/min/kg] | bioavailability [2] [%] | Vdss [3] [L/kg] | Papp [4] [×10⁻⁶ cm/s] | inhibition at 3 µM [5] [%] | SMILES
1 | 5 | 11 | 1.6 |  |  | O=C(c1cc2ccc(F)cc2[nH]1)N1C[C@]2(CCN(C3CCNC3)C2)c2ccccc21 (stereo not given in full)
2 |  |  |  | 5.13 | 94 | C[C@@H]1CCC(N2CC[C@]3(CN(C(=O)c4cc5ccc(F)cc5[nH]4)c4ccccc43)C2)CN1 (stereo not given in full)
